Results reported in patent US4731376A, “2-(-(2,2,5,5-tetramethyl-3-pyrrolin-3-carbonyl))-amino derivatives” (Alkaloida Vegyeszeti Gyar, priority 1983, dated 1988).

Tests used:
mice = test: acute toxicity on mice (LD50, Litchfield-Wilcoxon, after a week); format: in vivo; conditions: i.v., 95% confidence limits on the next line, 10080 min
Procedure: (§1) On the basis of the late occurrence of the ventricula extrasystole, ED125 and ED150 values were determined. The acute toxicities were determined on mice (CELP strain and the LD50 value was calculated after a week using the Litchfield-Wilcoxon method. The antiarrhythmically effective dosage or the LD50 value for several compounds of the various compound types are collected in Table III.

aconitin arrhythmia = aconitin arrhythmia model on rats (time to ventricular extrasystole, tachycardia, fibrillation; ED125, ED150); format: in vivo, Wistar rats; conditions: for time to chamber extrasystol, aconitin infusion / time to chamber tachycardia, aconitin infusion / time to fibrillation, aconitin infusion: 5 minutes before aconitin infusion, X ± S.E.M.; for ED125 / ED150: Rattus norvegicus, iv, 95% confidence limits on the next line; for ED125: infusion time to extrasystol 7.6 (control 6.1 minutes), read-out: ED125 (delay of chamber extrasystol); for ED150: infusion time to extrasystol 9.2 (control 6.1 minutes), read-out: ED150 (delay of chamber extrasystol)
Procedure: Wistar rats (200-220 g) are narcotized with urethane. The vena jugularis is connected with a polyethylene catheter. Using standard EKG-II leads, a control EKG is taken. The test substance and the physiological saline solution used as control are intravenously administered 5 minutes before the aconitin infusion. The aconitin solution is continuous administered at a dose of 5 mg/kg at a rate of 0.1 ml (100 g/minute) as an infusion into the vena jugularis. The progress is monitored by the EKG isoelectric line.
During the test the time to formation of the ventricular extrasystole, ventricular tachycardia and fibrillation were determined.
On the basis of the late occurrence of the ventricula extrasystole, ED125 and ED150 values were determined.

[1] = acute toxicity on mice (LD50, Litchfield-Wilcoxon, after a week); format: in vivo; conditions: mouse, in vivo, iv, 95% confidence limits on the next line
Procedure: as §1

Compound	LD50 (acute toxicity) (mice) [mg/kg]	time to chamber extrasystol, aconitin infusion (aconitin arrhythmia; 1.0 mg/kg i.v.) [min]	time to chamber tachycardia, aconitin infusion (aconitin arrhythmia; 1.0 mg/kg i.v.) [min]	time to fibrillation, aconitin infusion (aconitin arrhythmia; 1.0 mg/kg i.v.) [min]	time to chamber extrasystol, aconitin infusion (aconitin arrhythmia; 4.0 mg/kg i.v.) [min]	time to chamber tachycardia, aconitin infusion (aconitin arrhythmia; 4.0 mg/kg i.v.) [min]	time to fibrillation, aconitin infusion (aconitin arrhythmia; 4.0 mg/kg i.v.) [min]	ED125 (aconitin arrhythmia) [mg/kg]	ED150 (aconitin arrhythmia) [mg/kg]	time to chamber extrasystol, aconitin infusion (aconitin arrhythmia; 0.5 mg/kg i.v.) [min]	time to chamber tachycardia, aconitin infusion (aconitin arrhythmia; 0.5 mg/kg i.v.) [min]	time to fibrillation, aconitin infusion (aconitin arrhythmia; 0.5 mg/kg i.v.) [min]	time to chamber extrasystol, aconitin infusion (aconitin arrhythmia; 2.0 mg/kg i.v.) [min]	time to chamber tachycardia, aconitin infusion (aconitin arrhythmia; 2.0 mg/kg i.v.) [min]	time to fibrillation, aconitin infusion (aconitin arrhythmia; 2.0 mg/kg i.v.) [min]	further results
Cc1cccc(C)c1NC(=O)CNC(=O)C1=CC(C)(C)NC1(C)C [Compound 19]	53	6.6	10.4 ± 2.58	15.1 ± 0.70	9.8 ± 0.34	16.1 ± 2.62	17.4 ± 1.22	1.53	2.44							time to chamber extrasystol, aconitin infusion (aconitin arrhythmia; 8.0 mg/kg i.v.): 13.8 ± 0.35 min; time to chamber tachycardia, aconitin infusion (aconitin arrhythmia; 8.0 mg/kg i.v.): 27.0 ± 1.10 min; time to fibrillation, aconitin infusion (aconitin arrhythmia; 8.0 mg/kg i.v.): 30.6 ± 1.72 min
Cc1cccc(C)c1OCC(C)NC(=O)C1=CC(C)(C)NC1(C)C (stereo not shown) [Compound 9, 2-[N(2,2,5,5-tetramethyl-2,5-dihydro-3-pyrroline-3-carbonyl)]-3-(2,6-dimethyl-phenoxy)-aminopropane]	11	9.2 ± 0.10	15.3 ± 0.29	20.9 ± 0.50				0.6	0.9	7.2 ± 0.06	11.1 ± 0.68	14.6 ± 0.48	13.2 ± 1.21	18.9 ± 0.13	24.6 ± 0.79	
CC1(C)C=C(C(=O)NC(c2ccccc2)c2ccccc2)C(C)(C)N1 [Compound 6]	63							5.4	23.1							
Cc1cccc(C)c1NC(=O)C(C)NC(=O)C1=CC(C)(C)NC1(C)C (stereo not shown) [Compound 20]	15	7.1 ± 0.49	12.3 ± 0.42	15.5 ± 0.59	11.7 ± 0.50	18.4 ± 0.75	23.5 ± 1.63	1.21	1.91				9.2 ± 0.65	15.1 ± 0.22	19.5 ± 0.54	
Cc1cccc(C)c1OCC(C)NC(=O)C1CC(C)(C)NC1(C)C (stereo not shown) [Compound 11, 2-[N-(2,2,5,5-tetramethyl-3-pyrrolidine-3-carbonyl)]-3-(2,6-dimethyl-phenoxy)-amino propane]		13.2 ± 1.29	19.3 ± 1.24	23.5 ± 0.42				0.26	0.39	9.9 ± 0.40	15.3 ± 0.52	19.1 ± 0.89				LD50 at 168 h [1]: 1.96 mg/kg; time to chamber extrasystol, aconitin infusion (aconitin arrhythmia; 0.25 mg/kg i.v.): 7.6 ± 0.24 min; time to chamber tachycardia, aconitin infusion (aconitin arrhythmia; 0.25 mg/kg i.v.): 11.3 ± 0.88 min; time to fibrillation, aconitin infusion (aconitin arrhythmia; 0.25 mg/kg i.v.): 15.9 ± 0.49 min
C=CC1CN2CCC1CC2C(O)c1ccnc2ccc(OC)cc12 (stereo not shown) [chinidin, reference compound]								6.75								time to chamber extrasystol, aconitin infusion (aconitin arrhythmia; 5.0 mg/kg i.v.): 6.9 ± 0.06 min; time to chamber tachycardia, aconitin infusion (aconitin arrhythmia; 5.0 mg/kg i.v.): 10.4 ± 0.45 min; time to fibrillation, aconitin infusion (aconitin arrhythmia; 5.0 mg/kg i.v.): 13.7 ± 0.44 min; time to chamber extrasystol, aconitin infusion (aconitin arrhythmia; 10.0 mg/kg i.v.): 8.4 ± 0.42 min; time to chamber tachycardia, aconitin infusion (aconitin arrhythmia; 20.0 mg/kg i.v.): 15.7 ± 0.48 min; time to fibrillation, aconitin infusion (aconitin arrhythmia; 20.0 mg/kg i.v.): 18.1 ± 0.22 min
